Source: patent publication US20240400555A1 (Initial Therapeutics, Inc., priority 2023, published 2024)

System: HCT-116 Firefly-luciferase reporter cells
Test: Cellular c-MYC Reporter Assay
Assay type: cell-based
Conditions: Homo sapiens; untitled table following Table 8a; HCT-116 Firefly-luciferase reporter cells, 24 h; read-out: pIC50 (converted)
In short: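 Reporter cells seeded at 5e4 cells/mL in McCoy's 5A with 10% FBS and G418, dosed after 4–6 h at 0.2% final DMSO. After 24 h at 37 °C, luciferase luminescence was read with ONE-Glo.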

Cc1cnc(N(C(=O)c2ccc(-n3nnc4cccnc43)cc2F)[C@@H]2CCCNC2)c2c(C)cccc12 [Example 252, (R)-4-(3H-[1,2,3]triazolo[4,5-b]pyridin-3-yl)-N-(4,8-dimethylisoquinolin-1-yl)-2-fluoro-N-(piperidin-3-yl)benzamide]
IC50: 1.41 µM

Cc1ccc(C)c2c(N(C(=O)c3ccc(-n4nnc5cccnc54)cc3F)[C@@H]3CCCNC3)nccc12 [Example 253, (R)-4-(3H-[1,2,3]triazolo[4,5-b]pyridin-3-yl)-N-(5,8-dimethylisoquinolin-1-yl)-2-fluoro-N-(piperidin-3-yl)benzamide]
IC50: 0.115 µM

Cc1cc(C)c2c(N(C(=O)c3ccc(-n4nnc5cccnc54)cc3F)[C@@H]3CCCNC3)nccc2c1 [Example 254, (R)-4-(3H-[1,2,3]triazolo[4,5-b]pyridin-3-yl)-N-(6,8-dimethylisoquinolin-1-yl)-2-fluoro-N-(piperidin-3-yl)benzamide]
IC50: 0.0617 µM

Cc1cn(C)c2c(N(C(=O)c3ccc(-n4nnc5cccnc54)cc3F)[C@@H]3CCCNC3)nccc12 [Example 255, (R)-4-(3H-[1,2,3]triazolo[4,5-b]pyridin-3-yl)-N-(1,3-dimethyl-1H-pyrrolo[2,3-c]pyridin-7-yl)-2-fluoro-N-(piperidin-3-yl)benzamide]
IC50: 0.1 µM

CN1CCC(C2CCN(C(=O)N(c3cc4ccccc4cn3)[C@@H]3CCCNC3)CC2)C1 (stereo partly drawn) [Example 256, N-(isoquinolin-3-yl)-4-(1-methylpyrrolidin-3-yl)-N—((R)-piperidin-3-yl)piperidine-1-carboxamide]
IC50: 9.12 µM

Cc1cccc2ccnc(N(C(=O)N3CC=C(c4noc5cc(F)ccc45)CC3)[C@@H]3CCCNC3)c12 [Example 257, (R)-4-(6-fluorobenzo[d]isoxazol-3-yl)-N-(8-methylisoquinolin-1-yl)-N-(piperidin-3-yl)-3,6-dihydropyridine-1(2H)-carboxamide]
IC50: 4.17 µM

Cc1cccc2ccnc(N(C(=O)N3CCCCC3C(=O)N(C)C)[C@@H]3CCCNC3)c12 (stereo partly drawn) [Example 258, N^2,N^2-dimethyl-N^1-(8-methylisoquinolin-1-yl)-N1-((R)-piperidin-3-yl)piperidine-1,2-dicarboxamide]
IC50: 7.24 µM

Cc1cccc2ccnc(N(C(=O)N3CCCCC3c3nc4ccccc4s3)[C@@H]3CCCNC3)c12 (stereo partly drawn) [Example 259, 2-(benzo[d]thiazol-2-yl)-N-(8-methylisoquinolin-1-yl)-N—((R)-piperidin-3-yl)piperidine-1-carboxamide]
IC50: 8.32 µM

Cc1cccc2ccnc(N(C(=O)N3CCCC(CC4CCC4)C3)[C@@H]3CCCNC3)c12 (stereo partly drawn) [Example 260, 3-(cyclobutylmethyl)-N-(8-methylisoquinolin-1-yl)-N—((R)-piperidin-3-yl)piperidine-1-carboxamide]
IC50: 5.25 µM

Cc1cccc2ccnc(N(C(=O)N3CCCC(C4CCC4)CC3)[C@@H]3CCCNC3)c12 (stereo partly drawn) [Example 261, 4-cyclobutyl-N-(8-methylisoquinolin-1-yl)-N—((R)-piperidin-3-yl)azepane-1-carboxamide]
IC50: 5.5 µM

Cc1cccc2ccnc(N(C(=O)N3CCC(c4nc(C5CC5)no4)CC3)[C@@H]3CCCNC3)c12 [Example 262, (R)-4-(3-cyclopropyl-1,2,4-oxadiazol-5-yl)-N-(8-methylisoquinolin-1-yl)-N-(piperidin-3-yl)piperidine-1-carboxamide]
IC50: 0.575 µM

Cc1cccc2ccnc(N(C(=O)N3CCC(c4nc(-c5ccccc5)no4)CC3)[C@@H]3CCCNC3)c12 [Example 263]
IC50: 1.26 µM

Cc1cccc2ccnc(N(C(=O)N3CCN(c4nsc5ccccc45)CC3)[C@@H]3CCCNC3)c12 [Example 264, (R)-4-(benzo[d]isothiazol-3-yl)-N-(8-methylisoquinolin-1-yl)-N-(piperidin-3-yl)piperazine-1-carboxamide]
IC50: 3.98 µM

Cc1cccc2ccnc(N(C(=O)N3CCC4(CC3)OCCc3ccsc34)[C@@H]3CCCNC3)c12 [Example 265, (R)—N-(8-methylisoquinolin-1-yl)-N-(piperidin-3-yl)-4′,5′-dihydrospiro[piperidine-4,7′-thieno[2,3-c]pyran]-1-carboxamide]
IC50: 5.75 µM

Cc1cccc2ccnc(N(C(=O)N3CCC(n4ncc5ccccc54)CC3)[C@@H]3CCCNC3)c12 [Example 266, (R)-4-(1H-indazol-1-yl)-N-(8-methylisoquinolin-1-yl)-N-(piperidin-3-yl)piperidine-1-carboxamide]
IC50: 2.95 µM

Cc1cccc2ccnc(N(C(=O)N3CCCC(C)(c4ccccc4)C3)[C@@H]3CCCNC3)c12 (stereo partly drawn) [Example 267, 3-methyl-N-(8-methylisoquinolin-1-yl)-3-phenyl-N—((R)-piperidin-3-yl)piperidine-1-carboxamide]
IC50: 5.37 µM

Cc1cccc2ccnc(N(C(=O)N3CCC(n4c(=O)ccc5ccccc54)CC3)[C@@H]3CCCNC3)c12 [Example 268, (R)—N-(8-methylisoquinolin-1-yl)-4-(2-oxoquinolin-1(2H)-yl)-N-(piperidin-3-yl)piperidine-1-carboxamide]
IC50: 5.89 µM

Cc1cccc2ccnc(N(C(=O)N3CCC(c4cccc(O)c4)CC3)[C@@H]3CCCNC3)c12 [Example 269, (R)-4-(3-hydroxyphenyl)-N-(8-methylisoquinolin-1-yl)-N-(piperidin-3-yl)piperidine-1-carboxamide]
IC50: 3.55 µM

Cc1cccc2ccnc(N(C(=O)N3CCN(c4nncc5ccccc45)CC3)[C@@H]3CCCNC3)c12 [Example 270]
IC50: 2 µM

Cc1cccc2ccnc(N(C(=O)c3cccc(Cn4ccnn4)c3F)[C@@H]3CCCNC3)c12 [Example 271, (R)-3-((1H-1,2,3-triazol-1-yl)methyl)-2-fluoro-N-(8-methylisoquinolin-1-yl)-N-(piperidin-3-yl)benzamide]
IC50: 4.79 µM

O=C(c1ccc(Nc2ncccn2)cc1F)N(c1nccc2cccc(Cl)c12)[C@@H]1CCCNC1 [Example 272, (R)—N-(8-chloroisoquinolin-1-yl)-2-fluoro-N-(piperidin-3-yl)-4-(pyrimidin-2-ylamino)benzamide]
IC50: 0.437 µM

Cc1cccc2ccnc(N(C(=O)c3cccc(Cn4nc5cccnc5n4)c3F)[C@@H]3CCCNC3)c12 [Example 273, (R)-3-((2H-[1,2,3]triazolo[4,5-b]pyridin-2-yl)methyl)-2-fluoro-N-(8-methylisoquinolin-1-yl)-N-(piperidin-3-yl)benzamide]
IC50: 1.7 µM

Cc1cccc2ccnc(N(C(=O)c3ccc(Nc4ncccc4N)cc3F)[C@@H]3CCCNC3)c12 [Example 274, (R)-4-((3-aminopyridin-2-yl)amino)-2-fluoro-N-(8-methylisoquinolin-1-yl)-N-(piperidin-3-yl)benzamide]
IC50: 3.8 µM

Cc1cccc2ccnc(N(C(=O)c3ccc(Nc4nccs4)cc3F)[C@@H]3CCCNC3)c12 [Example 275, (R)-2-fluoro-N-(8-methylisoquinolin-1-yl)-N-(piperidin-3-yl)-4-(thiazol-2-ylamino)benzamide]
IC50: 3.89 µM

Cc1cccc2ccnc(N(C(=O)c3ccc(Nc4nccc5cccnc45)cc3F)[C@@H]3CCCNC3)c12 [Example 276, (R)-4-((1,7-naphthyridin-8-yl)amino)-2-fluoro-N-(8-methylisoquinolin-1-yl)-N-(piperidin-3-yl)benzamide]
IC50: 7.08 µM

Cc1cccc2ccnc(N(C(=O)c3ccc(Nc4ccn(C)n4)cc3F)[C@@H]3CCCNC3)c12 [Example 277, (R)-2-fluoro-4-((1-methyl-1H-pyrazol-3-yl)amino)-N-(8-methylisoquinolin-1-yl)-N-(piperidin-3-yl)benzamide]
IC50: 4.9 µM

Cc1cc(C)c2c(N(C(=O)N3CCC(c4cc(C)no4)CC3)[C@@H]3CCCNC3)nccc2c1 [Example 278, (R)—N-(6,8-dimethylisoquinolin-1-yl)-4-(3-methylisoxazol-5-yl)-N-(piperidin-3-yl)piperidine-1-carboxamide]
IC50: 0.49 µM

CCOC(=O)c1cc(C2CCN(C(=O)N(c3nccc4cccc(C)c34)[C@@H]3CCCNC3)CC2)on1 [Example 279, ethyl (R)-5-(1-((8-methylisoquinolin-1-yl)(piperidin-3-yl)carbamoyl)piperidin-4-yl)isoxazole-3-carboxylate]
IC50: 5.13 µM

Cc1cccc2ccnc(N(C(=O)c3ccc(Nc4ncns4)cc3F)[C@@H]3CCCNC3)c12 [Example 280, 2-fluoro-N-(8-methyl-1-isoquinolyl)-N-[(3R)-3-piperidyl]-4-(1,2,4-thiadiazol-5-ylamino)benzamide]
IC50: 0.891 µM

Cc1cccc2ccnc(N(C(=O)c3ccc(Nc4nnc(C(F)(F)F)s4)cc3F)[C@@H]3CCCNC3)c12 [Example 281, 2-fluoro-N-(8-methyl-1-isoquinolyl)-N-[(3R)-3-piperidyl]-4-[[5-(trifluoromethyl)-1,3,4-thiadiazol-2-yl]amino] benzamide]
IC50: 2.63 µM

Cc1cccc2ccnc(N(C(=O)c3cccc(Cn4nccn4)c3F)[C@@H]3CCCNC3)c12 [Example 282, (R)-3-((2H-1,2,3-triazol-2-yl)methyl)-2-fluoro-N-(8-methylisoquinolin-1-yl)-N-(piperidin-3-yl)benzamide]
IC50: 4.17 µM

O=C(c1ccc(-n2nnc3cccnc32)cc1F)N(c1nccc2ccc(Br)cc12)[C@@H]1CCCNC1 [Example 283, (R)-4-(3H-[1,2,3]triazolo[4,5-b]pyridin-3-yl)-N-(7-bromoisoquinolin-1-yl)-2-fluoro-N-(piperidin-3-yl)benzamide]
IC50: 1.2 µM

Cc1ccnc(N(C(=O)c2ccc(-n3nnc4cccnc43)cc2F)[C@@H]2CCCNC2)c1Cl [Example 284, (R)-4-(3H-[1,2,3]triazolo[4,5-b]pyridin-3-yl)-N-(3-chloro-4-methylpyridin-2-yl)-2-fluoro-N-(piperidin-3-yl)benzamide]
IC50: 1.2 µM

Cc1cccc2ccnc(N(C(=O)c3ccc(-n4nnc(C(C)C)n4)cc3F)[C@@H]3CCCNC3)c12 [Example 285, (R)-2-fluoro-4-(5-isopropyl-2H-tetrazol-2-yl)-N-(8-methylisoquinolin-1-yl)-N-(piperidin-3-yl) benzamide]
IC50: 0.295 µM
